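Results reflect a 48-hour exposure of cells in 96-well plates to compound at five concentrations. GI50: concentration for 50% inhibition of growth. Definition used: TGI = concentration required for complete inhibition of growth.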

Holding throughout (experiment): NCI anticancer screen, dose series, 48 h
In test [1] the test system is ACHN renal.
Test [2] relates to BT-549 breast.
In test [3] the test system is CAKI-1 renal.
Test [4] relates to CCRF-CEM leukemia.
Test [5] relates to HS 578T breast.
In test [6] the test system is IGROV1 ovarian.
For test [7], the system named is KM12 colon.
For test [8], the system named is MDA-MB-231 breast.
The subject of test [9] is SW-620 colon.
The test system of test [10] is TK-10 renal.

Take `Nc1nc(-c2ccccc2)cc(-c2ccc(Cl)cc2)c1-c1nc2ccccc2o1`: the GI50 is 11.1 µM in test [1]; 15.5 µM in [2]; 22.9 µM in test [3]; 3.8 µM in test [4]; 14.8 µM in test [5]; 12.9 µM in test [6]. Besides, the GI50 in [7] was 5.65 µM; in test [8], 6 µM; in [9], 14.9 µM; in test [10], 11.3 µM. Besides, the TGI in [1] stood at 23 µM; in [2] it was 29.7 µM; in [3], 38.6 µM; in test [4], 17 µM; in [5], 36.1 µM; in [6], 28.5 µM. Also, the TGI turned out to be 20.7 µM in [7], 18.9 µM in [8], 29.3 µM in test [9] and 27.1 µM in test [10].
With `CSC1(CC(=O)N2CCCCC2)C(=O)Nc2ccccc21` (centres undefined), the TGI in test [1], in [2], in [5], in test [6], in test [7] and in test [9] was over 100 µM throughout. Further, the TGI in test [10] is over 100 µM.
As to `O=c1ccnc(SCc2ccc(Cl)cc2)[nH]1`, the TGI in test [1], in test [2], in [3], in [4], in [5] and in test [6] was over 100 µM throughout. In addition, the TGI in test [7], in [8], in [9] and in [10] was over 100 µM each time.
As for `Oc1c(I)cc(I)cc1CN(Cc1ccccn1)Cc1ccccn1`, the GI50 in [1] was 0.502 µM; in [2], 1.12 µM; in test [3], 0.499 µM; in [4], 0.385 µM; in [5], 2.06 µM; in test [6], 1.12 µM. Moreover, the GI50 in test [7] is 0.774 µM; in [8], 1.86 µM; in test [9], 0.847 µM; in [10] it was 0.367 µM. Further, the TGI in [1] came to 6.98 µM; in [2], 13.8 µM; in test [3] it was 12.2 µM; in test [4], 30.8 µM; in test [5] it was 16 µM; in test [6], 12.6 µM. For the same compound, the TGI in test [7] was over 42.3 µM; in [8], over 51.3 µM; in test [9] it was 23.5 µM; in test [10], 11.7 µM.
With `COc1cnc2c(c1)C(=O)c1c-2n(CCCNC(C)C)c(=O)c2cc([N+](=O)[O-])ccc12`, the GI50 was 0.0267 µM in test [1]; 0.107 µM in [2]; 0.0314 µM in test [3]; 0.029 µM in test [4]; 0.938 µM in test [5]; 0.115 µM in [6]. Further, the GI50 was 0.221 µM in test [7], 0.157 µM in test [8], 0.0393 µM in test [9] and 0.134 µM in test [10]. The TGI was 0.121 µM in [1]; 0.314 µM in [2]; 0.191 µM in test [3]; 0.658 µM in test [4]; 3.24 µM in test [5]; 1.43 µM in test [6]. In addition, the TGI in test [7] turned out to be 0.981 µM; in test [8] it was 0.438 µM; in test [9], 0.643 µM; in [10] it was 0.318 µM.
`C=C1C(=O)O[C@H]2[C@H]1CC/C(COC(=O)NCc1cc(OC)cc(OC)c1)=C\CC[C@@]1(C)O[C@@H]21`: the GI50 is 1.29 µM in test [1]; 1.57 µM in test [2]; 1.59 µM in test [3]; 0.476 µM in test [4]; 4.12 µM in [5]; 2.12 µM in test [6]. Besides, the GI50 was 2.8 µM in [7], 1.61 µM in test [8], 1.12 µM in test [9] and 1.66 µM in [10]. Further, the TGI in test [1] came out at 2.8 µM; in test [2], 3.07 µM; in test [3], 3.1 µM; in test [4], 4.36 µM; in test [5] it was 23 µM; in test [6], 7.66 µM. The TGI was 11 µM in test [7], 4.07 µM in test [8], 3.97 µM in test [9] and 3.18 µM in test [10].
In the case of `C=C(C)[C@@H]1CC[C@]2(C(N)=O)CC[C@]3(C)[C@H](CC[C@@H]4[C@@]5(C)C/C(=C/c6cccnc6)[C@H](O)C(C)(C)[C@@H]5CC[C@]43C)[C@@H]12`, the GI50 in [1] was 3.53 µM; in test [2] it was 6.36 µM; in test [3], 2.15 µM; in [4], 3.86 µM; in [5], 8.3 µM; in test [6], 3.85 µM. Also, the GI50 was 3.82 µM in test [7], 99.5 µM in test [8], 4.38 µM in test [9] and 16.3 µM in test [10]. Further, the TGI is over 100 µM in [1]; over 100 µM in test [2]; 28.4 µM in test [3]; over 100 µM in test [4]; over 100 µM in test [5]; over 100 µM in test [6]. Further, the TGI in [7], in [8], in test [9] and in [10] was over 100 µM in each case.
As to `CC[CH2][Sn]([CH2]CC)([O]C(=O)Cc1ccc(F)cc1)[O][Sn]([CH2]CC)([CH2]CC)[O]C(=O)Cc1ccc(F)cc1`, the GI50 in test [1] is 0.209 µM; in test [2], 0.256 µM; in test [3], 0.11 µM; in test [6], 0.718 µM; in [7] it was 0.702 µM; in test [8], 0.406 µM. In addition, the figures for the GI50 in test [9] and in [10] were 0.0773 µM and 0.125 µM, respectively. The TGI in test [1] worked out at 0.552 µM; in [2], 0.92 µM; in [3], 0.481 µM; in test [4], 1.12 µM; in [6] it was 2.04 µM; in [7], 2.06 µM. Moreover, the results for the TGI in test [8], in [9] and in [10] were 1.76 µM, 0.22 µM and 0.393 µM, respectively.
In the case of `c1ccc2c3c(ccc2c1)-c1c(ccc2c(NCCCCN4CCCCC4)cccc12)C3`, the GI50 in test [1] is 1.61 µM; in test [6], 2.09 µM; in test [7], 1.51 µM; in test [8] it was 0.599 µM; in [10] it was 2.24 µM. In addition, the TGI in test [1] is 2.99 µM; in test [6] it was 8.03 µM; in [7], 3 µM; in test [8] it was 2.21 µM; in [10], 4.57 µM.
With `CCOC(=O)N1C=CC(=C2C(=C3C=CN(C(=O)OCC)C=C3)C(=C3C=CN(C(=O)OCC)C=C3)C2=C2C=CN(C(=O)OCC)C=C2)C=C1`, the TGI is 38.1 µM in [1]; over 100 µM in [2]; 50.6 µM in test [3]; 85.6 µM in test [5]; 85.3 µM in [6]; over 100 µM in test [7]. Further, the TGI in [8] was 70.5 µM; in test [9] it was over 100 µM; in test [10], 81.6 µM.
For the compound `Cc1ccc(NC(=O)c2cc3ccccc3cc2O)c(C)c1.Cc1ccc(NC(=O)c2cc3ccccc3cc2[O-])c(C)c1.[Ni+2]`, the GI50 in test [1] was 4.22 µM; in test [2] it was 2.44 µM; in [3], 3.08 µM; in [5] it was 2.98 µM; in test [7], 3.41 µM; in test [8], 2.33 µM. The results for the GI50 in [9] and in [10] were 4.24 µM and 4.66 µM, respectively. For the same compound, the TGI was found to be 7.55 µM in test [2]; 13.1 µM in [3]; 9.38 µM in test [5]; 15.9 µM in test [7]; 5.27 µM in [8]; 36.8 µM in test [9]. Also, the TGI in test [10] was 17 µM.
On to `Clc1ccc2c(NCCNc3nc(N4CCCC4)nc4ccccc34)ccnc2c1`, for which the GI50 in test [1] was 1.64 µM; in [2] it was 2.01 µM; in test [4] it was 0.457 µM; in test [5] it was 2.34 µM; in test [6] it was 1.65 µM; in test [7] it was 1.02 µM. Besides, the GI50 in test [8] is 0.811 µM; in test [9] it was 0.1 µM; in [10] it was 2.07 µM. For the same compound, the TGI in test [1] is 3 µM; in test [2], 4.98 µM; in test [4] it was over 100 µM; in test [5], 7 µM; in test [6], 4.6 µM; in [7] it was 2.46 µM. In addition, the TGI in test [8] worked out at 2.24 µM; in test [9], 1.45 µM; in test [10], 4.2 µM.
As to `CC(CN)[C@@H]1CC[C@]2(CO)CC[C@]3(C)[C@H](CC[C@@H]4[C@@]5(C)CCC(N)C(C)(C)[C@@H]5CC[C@]43C)[C@@H]12` (some centres undefined), the GI50 in test [1] was 1.77 µM; in test [3] it was 1.63 µM; in test [6], 1.86 µM; in [7], 1.74 µM; in test [8] it was 1.5 µM; in test [9], 1.8 µM. In addition, in test [10], the GI50 is 1.69 µM. The TGI was determined as 3.22 µM in [1]; 3.12 µM in test [3]; 3.78 µM in test [6]; 3.34 µM in [7]; 3.05 µM in test [8]; 3.43 µM in test [9]. This compound yielded a TGI in test [10] of 3.1 µM.
Regarding `Fc1cccc(-c2[nH]nc3nc(Nc4cccnc4)sc23)c1`, the GI50 in test [1] is 56.6 µM; in test [2], 14.9 µM; in test [3], 3.72 µM; in [4], 3.5 µM; in test [6], 11.7 µM; in test [7], 0.631 µM. Further, the GI50 in [8] is 35.2 µM; in test [9], 35.6 µM; in test [10], 31.2 µM. Also, the TGI in test [1] is over 100 µM; in test [2], 47 µM; in test [3], over 100 µM; in test [4], over 100 µM; in test [6], over 100 µM; in test [7], over 100 µM. The TGI in [8], in test [9] and in [10] was over 100 µM throughout.
For `COC1=C(OC)[C@]2(OC)c3c(O)c(OC)c4c(c3O[C@@]23O[C@@H](c2ccccc2)CC=C3C1=O)[C@@H](O)C[C@H](c1ccccc1)O4`, the GI50 is 0.819 µM in test [1]; 0.394 µM in test [2]; 1.34 µM in [3]; 0.0545 µM in [4]; 1.76 µM in [5]; 0.932 µM in test [6]. Further, the GI50 in [8] is 0.234 µM; in test [9], 0.173 µM; in test [10], 0.251 µM. The TGI in [1] stood at 2.06 µM; in test [2] it was 1.21 µM; in [3] it was 2.93 µM; in test [4] it was 0.208 µM; in [5], 5.38 µM; in test [6], 2.44 µM. Besides, the TGI in test [8] came to 0.911 µM; in [9], 0.334 µM; in test [10] it was 0.718 µM.
For the compound `COC(=O)C1=C(C)N(NC(N)=O)C(C)(O)C12CCOC2=O` (centres undefined), the TGI in test [1], in [3], in test [4], in test [6], in test [7] and in test [9] was over 100 µM throughout. In test [10], this compound gave a TGI of over 100 µM.
Consider `Cc1c(-c2nnc(-c3cc(Cl)c(Cl)cc3Cl)o2)nnn1-c1ccnc2c(C(F)(F)F)cccc12`, for which the GI50 was 21.9 µM in test [1]; 31.4 µM in test [3]; 25.6 µM in test [5]; 27.1 µM in test [6]; 24.6 µM in test [7]; 20.2 µM in test [8]. For the same compound, the results for the GI50 in [9] and in [10] were 30.8 µM and 32.2 µM, respectively. For the same compound, the TGI in [1] stood at 51.6 µM; in test [3] it was 94.8 µM; in test [5], 65.6 µM; in test [6], 71.7 µM; in test [7] it was 67.4 µM; in test [8], 53.2 µM. Also, the TGI in test [9] was over 100 µM; in test [10], 87 µM.
